Data taken from patent US6395308B1, “Purified extract from Harpagophytum procumbens and/or Harpagophytum zeyheri dence” (Finzekberg GmbH & Co. KG, priority 1996, dated 2002).

Assays:
[1] = stability in artificial gastric juice; format: in vitro ADME; settings: both in pure form and in diluted form
[2] = stability in artificial intestinal juice; format: in vitro ADME; settings: both in pure form and in diluted form

- stability in artificial gastric juice [1]: stable for at least two hours
- stability in artificial intestinal juice [2]: stable for at least two hours
SMILES: C[C@]1(OC(=O)/C=C/c2ccccc2)C[C@@H](O)[C@]2(O)C=CO[C@@H](O[C@@H]3O[C@H](CO)[C@@H](O)[C@H](O)[C@H]3O)[C@@H]21 [harpagoside]
